In patent US20240286998A1, “F[…], ANALOGUES THEREOF, AND METHODS USING SAME” (Saint Joseph's University, priority 2021, published 2024):
Where two headings read alike, the source gives them in different places.

Assays:
[1] = tested on: C57BL/6J mice; test: Head-Twitch Response (HTR) in mice; type: in vivo; conditions: for HTR counts over baseline / induction of HTR: compared to vehicle; for Duration of HTR above baseline: C57BL/6J mice, ascending and descending arm dose; for ED50: Mus musculus, ip, 0.5 h
Description: Male C57BL/6J mice (6-8 weeks old) were obtained from Jackson Laboratories (Bar Harbor, ME) and housed in a vivarium at the University of California San Diego, an AAALAC-approved animal facility that meets all federal and state requirements for care and treatment of laboratory animals. All animal experiments were carried out in accordance with NIH guidelines and were approved by the UCSD Institutional Animal Care and Use Committee. Mice were housed up to four per cage in a climate-controlled room on a reverse-light cycle (lights on at 1900 h, off at 0700 h). Animals were provided with ad libitum access to food and water, with the exception of during behavioral testing.
Testing was conducted between 1000 and 1800 h. Head movements were recorded using a head-mounted magnet and a magnetometer coil as described in Halberstadt et al. (Psychopharmacology, 2013, 227(4):727-739). For the head mounted magnet, mice were anesthetized, an incision was made in the scalp, and a neodymium magnet was attached to the dorsal surface of the cranium using dental cement. Following a 2-week recovery period, behavioral experiments were conducted in a well-lit room. At least 7 days occurred between sessions to avoid any carryover effects. Test substances (i.e., dimethyltryptamine (DMT), diethyltryptamine (DET), psilocybin, 6-fluoro-diethyltryptamine (6-F-DET), compounds 3-4, 6, 9, 12-13, 22, 33, 41, 69, 88, 166, and 178) were administered intraperitoneally (IP) at a volume of 5 mL/kg. Mice were treated with vehicle (saline) or 6 doses of the test compound and then placed in a glass cylinder surrounded by a magnetometer coil and tested for 30 min. Coil voltage was filtered (1 kHz lowpass), digitized (20 kHz sampling rate) and saved to disk using a Powerlab/8SP with LabChart v 7.3.2 (ADInstruments, Colorado Springs, CO).
The entire 30 min recordings were examined for head twitches. Established procedures based on artificial intelligence were used to identify head twitches in the recordings (Scientific Reports, 2020, 10(1):1-12). HTR counts were analyzed using one-way analyses of variance (ANOVA), followed by post hoc pairwise comparisons between individual groups and vehicle using Dunnett's multiple comparisons test. […] Median effective doses (ED50 values) and 95% confidence intervals (95% CI) were calculated using nonlinear regression (Prism 9.0.2, GraphPad Software, San Diego, CA) (Table 4 and FIGS. 1-3).

[2] = biological target: Serotonin 5-HT2A (human) (Homo sapiens (Human), UniProt P28223); test: 5-HT2A receptor binding, [3H]-ketanserin competition in membrane fractions; conditions: 1 nM [3H]-ketanserin, Cheng-Prusoff, N=1-3
[3] = biological target: 5-HT2A (Homo sapiens (Human), UniProt P28223); test: 5-HT2A Gq-mediated calcium flux functional assay; type: cell-based
[4] = biological target: 5-HT2C (Homo sapiens (Human), UniProt P28335); test: 5-HT2C Gq-mediated calcium flux functional assay; type: cell-based
[5] = biological target: 5-HT1A (Homo sapiens (Human), UniProt P08908); test: 5-HT1A Gi/o-mediated cAMP inhibition, GloSensor assay; type: cell-based
[6] = biological target: 5-HT2B (Homo sapiens (Human), UniProt P41595); test: 5-HT2B Gq-mediated calcium flux functional assay; type: cell-based
[7] = read-out: HTR ED50 μmol/kg (95% CI)
[8] = read-out: HTR ED50 mg/kg (95% CI)
[9] = cAMP inhibition, 0.2 μM isoproterenol, IA = Inactive

Chain of 5-HT2B (P41595 whole entry): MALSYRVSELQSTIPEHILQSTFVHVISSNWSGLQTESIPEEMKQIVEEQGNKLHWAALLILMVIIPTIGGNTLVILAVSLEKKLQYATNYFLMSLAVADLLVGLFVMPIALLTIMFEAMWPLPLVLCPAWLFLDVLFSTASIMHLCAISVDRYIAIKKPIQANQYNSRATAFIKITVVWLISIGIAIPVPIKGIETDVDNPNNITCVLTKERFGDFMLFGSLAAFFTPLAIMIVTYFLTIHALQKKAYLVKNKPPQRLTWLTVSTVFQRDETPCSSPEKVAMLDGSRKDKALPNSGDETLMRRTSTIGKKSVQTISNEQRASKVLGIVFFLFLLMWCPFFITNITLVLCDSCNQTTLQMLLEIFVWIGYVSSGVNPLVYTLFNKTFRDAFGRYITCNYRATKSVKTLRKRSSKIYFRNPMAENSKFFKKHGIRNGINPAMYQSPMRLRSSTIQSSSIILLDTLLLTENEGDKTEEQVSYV
Chain of 5-HT2C (P28335 whole entry, looked up): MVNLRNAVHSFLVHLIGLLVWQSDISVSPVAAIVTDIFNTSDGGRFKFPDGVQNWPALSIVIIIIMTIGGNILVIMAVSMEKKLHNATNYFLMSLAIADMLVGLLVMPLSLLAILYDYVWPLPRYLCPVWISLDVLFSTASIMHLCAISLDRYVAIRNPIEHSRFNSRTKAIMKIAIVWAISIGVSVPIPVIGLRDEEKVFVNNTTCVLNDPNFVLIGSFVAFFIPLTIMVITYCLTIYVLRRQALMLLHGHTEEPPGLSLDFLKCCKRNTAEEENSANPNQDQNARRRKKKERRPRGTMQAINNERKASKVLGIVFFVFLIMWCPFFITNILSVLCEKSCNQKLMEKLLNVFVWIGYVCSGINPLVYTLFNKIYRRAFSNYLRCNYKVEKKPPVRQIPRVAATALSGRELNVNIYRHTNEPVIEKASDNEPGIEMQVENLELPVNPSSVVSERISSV

| Compound | HTR counts over baseline / induction of HTR [1] | Duration of HTR above baseline [1] | 5-HT2A pKi ± SEM [2] | EC50 [3] [nM] | 5-HT2A-Ca2+ FLUX Emax (% 5-HT) ([3]; IA = Inactive, N=1-3) | EC50 [4] [nM] | 5-HT2C-Ca2+ FLUX Emax (% 5-HT) ([4]; IA = Inactive, N=1-3) | ED50 [1, 7] [µmol/kg] | ED50 [1, 8] [mg/kg] | melting point [°C] | EC50 [5] [nM] | 5-HT1A-cAMP Emax (% 5-HT) [5, 9] [% 5-HT] | EC50 [6] [nM] | 5-HT2B-Ca2+ FLUX Emax (% 5-HT) ([6]; IA = Inactive, N=1-3) | 5-HT2A-Ca2+ FLUX pEC50 ([3]; IA = Inactive, N=1-3) | 5-HT2C-Ca2+ FLUX pEC50 ([4]; IA = Inactive, N=1-3) | 5-HT1A-cAMP pEC50 [5, 9] | 5-HT2B-Ca2+ FLUX pEC50 ([6]; IA = Inactive, N=1-3) |
| --- | --- | --- | --- | --- | --- | --- | --- | --- | --- | --- | --- | --- | --- | --- | --- | --- | --- | --- |
| CCN(CC)CCc1c[nH]c2cc(F)ccc12 [6-F-DET, 6-fluoro-N,N-diethyltryptamine, reference compound] | inactive | – | – | – | – | – | – | – | – | – | – | – | – | – | – | – | – | – |
| CN(C)CCc1c[nH]c2ccccc12 [DMT, dimethyl tryptamine, reference compound] | – | about 10 minutes | – | – | – | – | – | – | – | – | – | – | – | – | – | – | – | – |
| CCN(CC)CCc1c[nH]c2cccc(F)c12 [Example 8, N,N-diethyl-2-(4-fluoro-1H-indol-3-yl)ethan-1-amine] | inactive | – | 6.09 | – | – | – | – | – | – | – | – | – | – | – | – | – | – | – |
| CCCN(CC)CCc1c[nH]c2cc(F)c(F)cc12 [Example 9, N-(2-(5,6-difluoro-1H-indol-3-yl)ethyl)-N-ethylpropan-1-amine] | significant increase | – | 6.15 ± 0.21 | 1.02 | 105.7 ± 1.9 | 19.1 | 100.7 ± 3.0 | 3 | 0.91 | 83 to 86 | 229 | 89.1 ± 2.9 | 1.7 | 96.6 ± 2.0 | – | – | – | – |
| CCCN(C)CCc1c[nH]c2ccc(F)cc12 [Example 13, N-(2-(5-fluoro-1H-indol-3-yl)ethyl)-N-methylpropan-1-amine] | – | – | 6.72 ± 0.12 | 1.58 | 103.0 ± 1.1 | 1.51 | 115.0 ± 4.0 | 4.81 | 1.13 | 80 to 82 | 245 | 85.8 ± 2.5 | 2.63 | 77.0 ± 1.2 | – | – | – | – |
| CCCN(CCc1c[nH]c2ccc(F)cc12)C(C)CC (centres unmarked) [compound 22, N-(2-(5-fluoro-1H-indol-3-yl)ethyl)-N-propylbutan-2-amine] | – | – | 5.97 ± 0.02 | 0.891 | 105.4 ± 1.6 | 50.1 | 97.5 ± 2.6 | 12.4 | 3.88 | – | 324 | 102.90 ± 1.9 | 0.813 | 98.9 ± 1.6 | – | – | – | – |
| CN1CCC[C@H]1Cc1c[nH]c2ccc(F)cc12 [compound 27, (S)-5-fluoro-3-((1-methylpyrrolidin-2-yl)methyl)-1H-indole] | – | – | 5.57 | 58.9 | 34.4 ± 2.3 | 56.2 | 18.5 ± 0.7 | – | – | 135 to 136.4 | 562 | 88.2 ± 3.6 | 14.1 | 35.3 ± 1.3 | – | – | – | – |
| CN1CCC[C@@H]1Cc1c[nH]c2ccc(F)cc12 [compound 28, (R)-5-fluoro-3-((1-methylpyrrolidin-2-yl)methyl)-1H-indole] | – | – | 7.19 ± 0.03 | 2.34 | 91.1 ± 2.5 | 1.74 | 92.8 ± 0.9 | – | – | 127.6 to 131.7 | 72.4 | 101.20 ± 1.7 | 0.724 | 90.8 ± 1.1 | – | – | – | – |
| CCN(CCc1c[nH]c2ccc(F)cc12)C1CCC1 [compound 31, N-ethyl-N-(2-(5-fluoro-1H-indol-3-yl)ethyl)cyclobutanamine] | – | – | 6.26 ± 0.32 | 2.04 | 104.5 ± 1.8 | 57.5 | 98.0 ± 1.9 | – | – | 89.4 to 90.3 | 22.4 | 100.7 ± 1.8 | 2.51 | 96.5 ± 1.4 | – | – | – | – |
| CCCN(CCc1c[nH]c2ccc(F)cc12)C1CCC1 [compound 33, N-(2-(5-fluoro-1H-indol-3-yl)ethyl)-N-propylcyclobutanamine] | – | – | 6.25 ± 0.003 | 0.49 | 107.0 ± 1.9 | 19.1 | 105.4 ± 1.8 | 2.55 | 0.79 | – | 14.5 | 100.7 ± 1.3 | 0.589 | 115.6 ± 2.2 | 9.31 ± 0.06 | 7.72 ± 0.05 | 7.84 ± 0.04 | 9.23 ± 0.07 |
| CCCN(CC)CCc1c[nH]c2c(F)cc(OC)cc12 [compound 41, N-ethyl-N-(2-(7-fluoro-5-methoxy-1H-indol-3-yl)ethyl)propan-1-amine] | – | – | 6.15 ± 0.34 | – | – | – | – | 3.56 | 1.12 | – | – | – | – | – | – | – | – | – |
| CCN(C)CCc1c[nH]c2c(F)cc(F)cc12 [compound 69, 2-(5,7-difluoro-1H-indol-3-yl)-N-ethyl-N-methylethan-1-amine] | – | – | 6.90 ± 0.002 | – | – | – | – | 4.81 | 1.32 | – | – | – | – | – | – | – | – | – |
| CCN(C)CCc1c[nH]c2c(F)cc(OC)cc12 [compound 88, N-ethyl-2-(7-fluoro-5-methoxy-1H-indol-3-yl)-N-methylethan-1-amine] | – | – | 6.71 ± 0.31 | 1.95 | 90.6 ± 0.8 | 20.4 | 86.8 ± 1.4 | 1.95 | 0.56 | – | – | – | 5.62 | 37.5 ± 0.7 | – | – | – | – |
| CCCN(CC)CCc1c[nH]c2c(F)cc(C)cc12 [compound 166, N-ethyl-N-(2-(7-fluoro-5-methyl-1H-indol-3-yl)ethyl)propan-1-amine] | – | – | 5.96 ± 0.25 | 18.2 | 98.1 ± 0.7 | 200 | 94.6 ± 1.7 | 6.56 | 1.96 | – | – | – | 33.1 | 95.9 ± 0.7 | – | – | – | – |
| C=CC(C)N(C)CCc1c[nH]c2ccc(F)cc12 (centres unmarked) [compound 178, N-(2-(5-fluoro-1H-indol-3-yl)ethyl)-N-methylbut-3-en-2-amine] | – | – | 6.25 | 5.37 | 84.7 ± 1.2 | 15.8 | 87.4 ± 1.5 | 3.53 | 0.87 | – | – | – | 5.5 | 27.7 ± 0.5 | – | – | – | – |
| CN(C)CCc1c[nH]c2cccc(O)c12 [psilocin, reference compound] | – | about 35 minutes | – | – | – | – | – | – | – | – | – | – | – | – | – | – | – | – |
